Results reported in publication PMC3914206.

How the values were obtained:
Format in all cases: binding
Details in all cases: Compound Concentration 10 µM
panel of 442 kinases [1] = molecular target: T1, panel of 442 kinases (Homo sapiens, UniProt P11802)
T1 construct: purchased KINOMEscan
Source text: (§1) We assessed the selectivity of members of this scaffold using the KINOMEscan methodology across a near comprehensive panel of 442 kinases [[18,27]].

panel of 442 kinases [2] = molecular target: T2, panel of 442 kinases (Homo sapiens, UniProt P29320)
T2 construct: purchased KINOMEscan
T2 sequence (P29320 21-983): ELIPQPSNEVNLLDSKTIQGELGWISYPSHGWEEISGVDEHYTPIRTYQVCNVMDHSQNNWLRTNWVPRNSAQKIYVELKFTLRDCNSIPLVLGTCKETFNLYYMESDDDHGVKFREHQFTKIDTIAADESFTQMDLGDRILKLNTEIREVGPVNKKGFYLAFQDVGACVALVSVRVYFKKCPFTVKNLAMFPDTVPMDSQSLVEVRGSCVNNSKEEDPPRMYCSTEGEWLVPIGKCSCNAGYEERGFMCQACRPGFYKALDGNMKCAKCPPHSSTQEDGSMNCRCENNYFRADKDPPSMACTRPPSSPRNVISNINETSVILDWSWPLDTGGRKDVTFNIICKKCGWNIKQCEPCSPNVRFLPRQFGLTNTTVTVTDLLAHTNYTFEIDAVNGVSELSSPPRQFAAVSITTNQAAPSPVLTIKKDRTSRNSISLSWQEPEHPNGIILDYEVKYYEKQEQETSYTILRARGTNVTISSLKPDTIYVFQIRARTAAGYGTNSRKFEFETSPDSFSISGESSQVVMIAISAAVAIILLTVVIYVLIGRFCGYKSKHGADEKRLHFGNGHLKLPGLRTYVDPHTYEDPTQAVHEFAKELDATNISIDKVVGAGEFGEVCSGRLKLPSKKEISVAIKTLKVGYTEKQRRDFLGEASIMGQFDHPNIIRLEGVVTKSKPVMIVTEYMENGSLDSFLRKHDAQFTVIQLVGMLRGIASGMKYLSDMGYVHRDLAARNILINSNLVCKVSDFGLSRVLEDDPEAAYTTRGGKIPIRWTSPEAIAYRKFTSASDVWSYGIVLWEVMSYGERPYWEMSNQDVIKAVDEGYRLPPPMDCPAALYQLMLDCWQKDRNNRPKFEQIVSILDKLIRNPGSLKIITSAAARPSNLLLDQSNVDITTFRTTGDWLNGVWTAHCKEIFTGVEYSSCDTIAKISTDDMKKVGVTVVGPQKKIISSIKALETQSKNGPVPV
Source text: as §1

panel of 442 kinases [3] = molecular target: T3, panel of 442 kinases (Homo sapiens, UniProt Q13627)
T3 construct: purchased KINOMEscan
Source text: as §1

T1 sequence (P11802 whole entry): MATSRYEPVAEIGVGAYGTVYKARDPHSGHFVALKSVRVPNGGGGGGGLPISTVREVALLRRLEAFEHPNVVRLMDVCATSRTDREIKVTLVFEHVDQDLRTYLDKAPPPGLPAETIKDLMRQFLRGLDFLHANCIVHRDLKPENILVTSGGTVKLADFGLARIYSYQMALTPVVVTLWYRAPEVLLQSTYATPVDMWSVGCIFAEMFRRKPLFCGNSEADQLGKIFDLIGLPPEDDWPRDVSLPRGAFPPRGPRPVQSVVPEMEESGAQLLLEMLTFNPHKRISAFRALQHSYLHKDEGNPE

SMILES | KINOMEscan: CDK4-cyclinD1 (panel of 442 kinases [1]) | KINOMEscan: CDK4-cyclinD3 (panel of 442 kinases [1]) | KINOMEscan: EPHA3 (panel of 442 kinases [2]) | KINOMEscan: DYRK1A (panel of 442 kinases [3])
CCOc1cc(C(=O)N2CCC(N3CCN(C)CC3)CC2)ccc1Nc1ncc2c(n1)N(C1CCCC1)c1ccccc1C(=O)N2C [Compound 26] | 91 | 100 | 95 | 88
COc1cc(C(=O)N2CCC(N3CCN(C)CC3)CC2)ccc1Nc1ncc2c(n1)N1CCc3cccc(c31)C(=O)N2C [Compound 24] |  |  | 91 | 67
COc1cc(C(=O)N2CCC(N3CCN(C)CC3)CC2)ccc1Nc1ncc2c(n1)N(C)c1ccccc1C(=O)N2C [15 (LRRK2-IN-1)] | 100 | 100 | 100 | 99
COc1cc(C(=O)N2CCC(N3CCN(C)CC3)CC2)ccc1Nc1ncc2c(n1)N(C1CCCC1)c1ccccc1C(=O)N2C [Compound 25, 11-cyclopentyl-2-((2-methoxy-4-(4-(4-methylpiperazin-1-yl)piperidine-1-carbonyl)phenyl)amino)-5-methyl-5H-benzo[e]pyrimido[5,4-b][1,4]diazepin-6(11H)-one] | 100 | 73 | 100 | 100
